Data reported in ChEMBL document CHEMBL1201862, “PubChem BioAssay data set” (2004).
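Assay format: 96-well plates, 48-hour exposure. GI50: concentration for 50% inhibition of growth.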 Calls of active or inactive are those of the source. Cut-off read from the data, not from the text of the source: active = GI50 up to about 1.1 µM and inactive = higher.

Columns and labels:
Test in all cases: DTP human tumour cell line panel, 48 h
[1] = test system: NCI-H23
[2] = test system: OVCAR-5
[3] = test system: IGROV-1
[4] = test system: HCT-116
[5] = test system: M14
[6] = test system: Hs-578T
[7] = test system: MOLT-4
[8] = test system: K562
[9] = test system: LOX IMVI
[10] = test system: SK-MEL-2
[11] = test system: EKVX
[12] = test system: U-251
[13] = test system: TK-10
[14] = test system: HCT-15
[15] = test system: OVCAR-4
[16] = test system: NCI/ADR-RES
[17] = test system: HOP-92
[18] = test system: NCI-H226
[19] = test system: HCC 2998
[20] = test system: SR
[21] = test system: CCRF-CEM
[22] = test system: A498
[23] = test system: MDA-MB-231
[24] = test system: SF-295
[25] = test system: UO-31
[26] = test system: HT-29
[27] = test system: SF-268
[28] = test system: ACHN
[29] = test system: MDA-N
[30] = test system: SK-MEL-5
[31] = test system: SK-MEL-28
[32] = test system: SW-620
[33] = test system: NCI-H522
[34] = test system: DU-145
[35] = test system: OVCAR-3
[36] = test system: OVCAR-8
[37] = test system: T47D
[38] = test system: SF-539
[39] = test system: RPMI-8226
[40] = test system: CAKI-1
[41] = test system: HOP-62
[42] = test system: SK-OV-3
[43] = test system: MCF7
[44] = test system: UACC-257
[45] = test system: RXF 393
[46] = test system: MDA-MB-435
[47] = test system: 786-0
[48] = test system: PC-3
[49] = test system: HL-60
[50] = test system: NCI-H460
[51] = test system: KM12
[52] = test system: A549
[53] = test system: SNB-75
[54] = test system: UACC-62
[55] = test system: SNB-19
[56] = test system: SN12C
[57] = test system: COLO 205
[58] = test system: Malme-3M

In the case of `CC1=NN(c2cccc(Cl)c2)C2(SCC(=O)N2c2nc3ccccc3s2)/C1=C\c1ccc(Cl)cc1` (stereo not drawn), the GI50 [1] is reported as 18.4 µM (inactive), the GI50 [2] is reported as 20.2 µM (inactive) and the GI50 [3] is reported as 15 µM (inactive). The GI50 [4] was 16.3 µM (inactive), the GI50 [5] was 19.8 µM (inactive) and the GI50 [6] was 19.4 µM (inactive). For the same molecule, the GI50 [7] was 4.34 µM (inactive), the GI50 [8] was 14.4 µM (inactive) and the GI50 [9] was 20.8 µM (inactive). The GI50 [10] was 16.7 µM (inactive), the GI50 [11] was 33.5 µM (inactive) and the GI50 [12] was 13.8 µM (inactive). The GI50 [13] was 30.2 µM (inactive), the GI50 [14] was 13.9 µM and the GI50 [15] was 17.3 µM (inactive). The GI50 [16] was 38.8 µM (inactive), the GI50 [17] was 13.4 µM (inactive) and the GI50 [18] was 23.8 µM (inactive). For the same molecule, the GI50 [19] was 14.5 µM (inactive), the GI50 [20] was 2.81 µM (inactive) and the GI50 [21] was 0.272 µM (active). The GI50 [22] was 17.3 µM (inactive), the GI50 [23] was 25.5 µM (inactive) and the GI50 [24] was 17 µM (inactive). The GI50 [25] was 15.1 µM (inactive), the GI50 [26] was 19.4 µM (inactive) and the GI50 [27] was 17.9 µM (inactive). For the same molecule, the GI50 [28] was 19.2 µM (inactive), the GI50 [29] was 25.7 µM (inactive) and the GI50 [30] was 13.8 µM (inactive). The GI50 [31] was 24.5 µM (inactive), the GI50 [32] was 14.4 µM (inactive) and the GI50 [33] was 20.3 µM (inactive). The GI50 [34] was 18.4 µM (inactive), the GI50 [35] was 16.8 µM (inactive) and the GI50 [36] was 18.9 µM (inactive). For the same molecule, the GI50 [37] was 24.8 µM (inactive), the GI50 [38] was 26.2 µM (inactive) and the GI50 [39] was 15.6 µM (inactive). The GI50 [40] was 18.3 µM (inactive), the GI50 [41] was 18 µM (inactive) and the GI50 [42] was 21.5 µM (inactive). For the same molecule, the GI50 [43] was 22.2 µM (inactive), the GI50 [44] was 21.6 µM (inactive) and the GI50 [45] was 20.4 µM (inactive). The GI50 [46] was 19.9 µM (inactive), the GI50 [47] was 21.6 µM (inactive) and the GI50 [48] was 15.7 µM (inactive). For the same molecule, the GI50 [49] was 11.8 µM (inactive), the GI50 [50] was 15.8 µM (inactive) and the GI50 [51] was 15.4 µM (inactive).
`O=c1[nH]nc(Cc2ccccc2)n1/N=C/c1c[nH]c2ccccc12` was tested, and the GI50 [1] was > 100 µM (inactive), the GI50 [2] was > 100 µM (inactive) and the GI50 [3] was > 100 µM (inactive). The GI50 [4] was > 100 µM (inactive), the GI50 [5] was > 100 µM (inactive) and the GI50 [6] was 25.4 µM (inactive). For the same molecule, the GI50 [7] was > 100 µM (inactive), the GI50 [8] was > 100 µM (inactive) and the GI50 [52] was 66.1 µM (inactive). The GI50 [9] was > 100 µM (inactive), the GI50 [10] was > 100 µM (inactive) and the GI50 [11] was 95.1 µM (inactive). For the same molecule, the GI50 [12] was 52.1 µM (inactive), the GI50 [13] was 35.3 µM (inactive) and the GI50 [14] was over 100 µM. The GI50 [15] was 42.5 µM (inactive), the GI50 [16] was 82.6 µM (inactive) and the GI50 [17] was > 100 µM (inactive). The GI50 [53] was 13.3 µM (inactive), the GI50 [18] was > 100 µM (inactive) and the GI50 [54] was 41.6 µM (inactive). For the same molecule, the GI50 [19] was > 100 µM (inactive), the GI50 [20] was > 100 µM (inactive) and the GI50 [21] was > 100 µM (inactive). The GI50 [22] was > 100 µM (inactive), the GI50 [23] was 59 µM (inactive) and the GI50 [24] was 27.7 µM (inactive). For the same molecule, the GI50 [25] was > 100 µM (inactive), the GI50 [26] was 71.6 µM (inactive) and the GI50 [27] was 21.9 µM (inactive). For the same molecule, the GI50 [28] was > 100 µM (inactive), the GI50 [29] was 29.8 µM (inactive) and the GI50 [30] was > 100 µM (inactive). The GI50 [31] was > 100 µM (inactive), the GI50 [55] was 49.5 µM (inactive) and the GI50 [32] was > 100 µM (inactive). For the same molecule, the GI50 [33] was 22.9 µM (inactive), the GI50 [34] was > 100 µM (inactive) and the GI50 [35] was > 100 µM (inactive). For the same molecule, the GI50 [56] was > 100 µM (inactive), the GI50 [36] was > 100 µM (inactive) and the GI50 [37] was > 100 µM (inactive). The GI50 [38] was > 100 µM (inactive), the GI50 [39] was > 100 µM (inactive) and the GI50 [40] was 16.7 µM (inactive). For the same molecule, the GI50 [41] was 60.7 µM (inactive), the GI50 [42] was 96.2 µM (inactive) and the GI50 [57] was > 100 µM (inactive). For the same molecule, the GI50 [43] was > 100 µM (inactive), the GI50 [44] was 96.2 µM (inactive) and the GI50 [46] was 81.7 µM (inactive). The GI50 [47] was 43 µM (inactive), the GI50 [48] was 92 µM (inactive) and the GI50 [58] was 57.1 µM (inactive). The GI50 [49] was > 100 µM (inactive), the GI50 [50] was > 100 µM (inactive) and the GI50 [51] was > 100 µM (inactive).
